Drawing on BindingDB's records for doi:10.1111/cbdd.12686 (Jamia Hamdard, 2016), this text covers IC50 for 14 molecules.

Molecules are shown by their SMILES.

The assay has as its target Xanthine dehydrogenase/oxidase (Bos taurus, UniProt P80457). In words: Xanthine Oxidase (XO) Assay. Particulars: pH 7.4.

Chain of Xanthine dehydrogenase/oxidase (P80457 whole entry): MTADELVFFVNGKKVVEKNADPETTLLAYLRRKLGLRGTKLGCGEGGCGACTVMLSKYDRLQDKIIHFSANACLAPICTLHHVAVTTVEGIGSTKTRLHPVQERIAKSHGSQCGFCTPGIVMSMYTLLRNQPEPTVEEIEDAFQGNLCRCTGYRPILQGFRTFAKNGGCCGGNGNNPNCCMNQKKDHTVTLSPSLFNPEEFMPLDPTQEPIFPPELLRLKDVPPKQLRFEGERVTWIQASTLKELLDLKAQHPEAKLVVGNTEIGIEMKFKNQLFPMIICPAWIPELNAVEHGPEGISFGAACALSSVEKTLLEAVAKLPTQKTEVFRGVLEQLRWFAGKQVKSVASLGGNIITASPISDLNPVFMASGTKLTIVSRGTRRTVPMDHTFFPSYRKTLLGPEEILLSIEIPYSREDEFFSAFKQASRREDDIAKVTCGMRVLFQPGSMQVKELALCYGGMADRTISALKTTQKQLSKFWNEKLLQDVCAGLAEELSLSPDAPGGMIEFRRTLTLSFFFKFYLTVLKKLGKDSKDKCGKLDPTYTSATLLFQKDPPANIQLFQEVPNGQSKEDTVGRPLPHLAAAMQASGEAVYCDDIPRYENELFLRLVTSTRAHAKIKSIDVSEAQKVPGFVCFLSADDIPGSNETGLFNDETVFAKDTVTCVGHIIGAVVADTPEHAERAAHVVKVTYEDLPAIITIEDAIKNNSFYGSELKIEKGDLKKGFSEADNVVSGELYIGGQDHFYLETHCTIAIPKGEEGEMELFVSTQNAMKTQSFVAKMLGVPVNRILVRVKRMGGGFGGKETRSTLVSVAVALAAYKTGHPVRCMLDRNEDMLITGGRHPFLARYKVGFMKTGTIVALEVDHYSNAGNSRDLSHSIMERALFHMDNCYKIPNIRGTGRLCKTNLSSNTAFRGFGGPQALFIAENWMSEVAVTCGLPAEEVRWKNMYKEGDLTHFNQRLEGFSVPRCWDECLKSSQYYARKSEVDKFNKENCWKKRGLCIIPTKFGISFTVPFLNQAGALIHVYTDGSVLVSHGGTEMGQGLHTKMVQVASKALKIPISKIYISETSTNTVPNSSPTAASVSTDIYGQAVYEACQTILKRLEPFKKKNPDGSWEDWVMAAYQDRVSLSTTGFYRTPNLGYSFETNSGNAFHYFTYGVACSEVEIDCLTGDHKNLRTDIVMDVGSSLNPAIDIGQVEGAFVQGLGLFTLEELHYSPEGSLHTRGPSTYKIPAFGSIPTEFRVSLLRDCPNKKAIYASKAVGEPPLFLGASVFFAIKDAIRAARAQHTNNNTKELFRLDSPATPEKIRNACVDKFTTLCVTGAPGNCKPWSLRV

As to `Cc1nc(NCc2ccccc2)sc1C(=O)O` [2-(Benzylamino)-4-methyl-1,3-thiazole-5-carboxylic acid (5a)], the IC50 is 98.1 µM.
The same measure for `Cc1nc(NCc2ccc(Cl)cc2Cl)sc1C(=O)O` [2-{[(2,4-dichlorophenyl)methyl]amino}-4-methyl-1,3-thiazole-5-carboxylic acid (5l)]: 8.1 µM.
On to `Cc1nc(NCc2ccccc2Br)sc1C(=O)O` [2-{[(2-bromophenyl)methyl]amino}-4-methyl-1,3-thiazole-5-carboxylic acid (5i)], for which the IC50 is > 100 µM.
`Cc1nc(NCc2ccccc2Cl)sc1C(=O)O` [2-{[(2-chlorophenyl)methyl]amino}-4-methyl-1,3-thiazole-5-carboxylic acid (5j)] registered an IC50 of 9.9 µM.
Next, `Cc1nc(NCc2ccccc2O)sc1C(=O)O` [2-{[(2-hydroxyphenyl)methyl]amino}-4-methyl-1,3-thiazole-5-carboxylic acid (5m)]: > 100 µM; `COc1ccccc1CNc1nc(C)c(C(=O)O)s1` [2-{[(2-methoxyphenyl)methyl]amino}-4-methyl-1,3-thiazole-5-carboxylic acid (5n)]: 14.7 µM.
Consider `Cc1nc(NCc2ccc(O)c(O)c2)sc1C(=O)O` [2-{[(3,4-dihydroxyphenyl)methyl]amino}-4-methyl-1,3-thiazole-5-carboxylic acid (5p)], for which the IC50 is 60.2 µM.
Take `Cc1nc(NCc2ccc(Br)cc2)sc1C(=O)O` [2-{[(4-bromophenyl)methyl]amino}-4-methyl-1,3-thiazole-5-carboxylic acid (5d)]: the IC50 worked out at 43.2 µM.
Next, `Cc1nc(NCc2ccc(Cl)cc2)sc1C(=O)O` [2-{[(4-chlorophenyl)methyl]amino}-4-methyl-1,3-thiazole-5-carboxylic acid (5b)]: > 100 µM; `Cc1nc(NCc2ccc(F)cc2)sc1C(=O)O` [2-{[(4-fluorophenyl)methyl]amino}-4-methyl-1,3-thiazole-5-carboxylic acid (5c)]: 30.3 µM; `Cc1nc(NCc2ccc(O)cc2)sc1C(=O)O` [2-{[(4-hydroxyphenyl)methyl]amino}-4-methyl-1,3-thiazole-5-carboxylic acid (5f)]: 21.5 µM.
`COc1ccc(CNc2nc(C)c(C(=O)O)s2)cc1` [2-{[(4-methoxyphenyl)methyl]amino}-4-methyl-1,3-thiazole-5-carboxylic acid (5g)]: the IC50 was > 100 µM.
Turning to `Cc1ccccc1CNc1nc(C)c(C(=O)O)s1` [4-methyl-2-{[(2-methylphenyl)methyl]amino}-1,3-thiazole-5-carboxylic acid (5k)], the IC50 is 3.6 µM.
Next, `Cc1ccc(CNc2nc(C)c(C(=O)O)s2)cc1` [4-methyl-2-{[(4-methylphenyl)methyl]amino}-1,3-thiazole-5-carboxylic acid (5e)]: > 100 µM.
